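96-well plates; 48 h exposure; 5 concentrations. Endpoints by linear interpolation between flanking doses. Not reached: highest tested concentration assigned. The concentration for full growth arrest is given as TGI.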
Assays:
Assay in all cases: NCI-60 cell line screen, 48 h
786-0 renal = tested on: 786-0 renal
A549 NSCLC = tested on: A549 NSCLC
ACHN renal = tested on: ACHN renal
CCRF-CEM leukemia = tested on: CCRF-CEM leukemia
COLO 205 colon = tested on: COLO 205 colon
DU-145 prostate = tested on: DU-145 prostate
EKVX NSCLC = tested on: EKVX NSCLC
HCC-2998 colon = tested on: HCC-2998 colon
HCT-116 colon = tested on: HCT-116 colon
HCT-15 colon = tested on: HCT-15 colon
HL-60(TB) leukemia = tested on: HL-60(TB) leukemia
HOP-62 NSCLC = tested on: HOP-62 NSCLC
HOP-92 NSCLC = tested on: HOP-92 NSCLC
HS 578T breast = tested on: HS 578T breast
HT29 colon = tested on: HT29 colon
IGROV1 ovarian = tested on: IGROV1 ovarian
K-562 leukemia = tested on: K-562 leukemia
KM12 colon = tested on: KM12 colon
LOX IMVI melanoma = tested on: LOX IMVI melanoma
M14 melanoma = tested on: M14 melanoma
MALME-3M melanoma = tested on: MALME-3M melanoma
MCF7 breast = tested on: MCF7 breast
MDA-MB-231 breast = tested on: MDA-MB-231 breast
MDA-MB-435 = tested on: MDA-MB-435
MDA-N = tested on: MDA-N
MOLT-4 leukemia = tested on: MOLT-4 leukemia
NCI-H226 lung = tested on: NCI-H226 lung
NCI-H23 lung = tested on: NCI-H23 lung
NCI-H460 lung = tested on: NCI-H460 lung
NCI/ADR-RES ovarian = tested on: NCI/ADR-RES ovarian
OVCAR-3 ovarian = tested on: OVCAR-3 ovarian
OVCAR-4 ovarian = tested on: OVCAR-4 ovarian
OVCAR-5 ovarian = tested on: OVCAR-5 ovarian
OVCAR-8 ovarian = tested on: OVCAR-8 ovarian
PC-3 prostate = tested on: PC-3 prostate
RPMI-8226 leukemia = tested on: RPMI-8226 leukemia
SF-268 CNS = tested on: SF-268 CNS
SF-295 CNS = tested on: SF-295 CNS
SF-539 CNS = tested on: SF-539 CNS
SK-MEL-2 melanoma = tested on: SK-MEL-2 melanoma
SK-MEL-28 melanoma = tested on: SK-MEL-28 melanoma
SK-MEL-5 melanoma = tested on: SK-MEL-5 melanoma
SK-OV-3 ovarian = tested on: SK-OV-3 ovarian
SN12C renal = tested on: SN12C renal
SNB-75 CNS = tested on: SNB-75 CNS
SR leukemia = tested on: SR leukemia
SW-620 colon = tested on: SW-620 colon
T-47D breast = tested on: T-47D breast
TK-10 renal = tested on: TK-10 renal
U251 CNS = tested on: U251 CNS
UACC-257 melanoma = tested on: UACC-257 melanoma
UACC-62 melanoma = tested on: UACC-62 melanoma
UO-31 renal = tested on: UO-31 renal
A498 renal = tested on: A498 renal
BT-549 breast = tested on: BT-549 breast
CAKI-1 renal = tested on: CAKI-1 renal
RXF 393 renal = tested on: RXF 393 renal
SNB-19 CNS = tested on: SNB-19 CNS
NCI-H522 lung = tested on: NCI-H522 lung

For `CCN(CC)CCOCCn1c2c(c3ccccc31)CCCC2`, the TGI (786-0 renal) was 30 µM, the TGI (A549 NSCLC) was 72.2 µM and the TGI (ACHN renal) was 41.9 µM. For the same compound, the TGI (CCRF-CEM leukemia) was 50.9 µM, the TGI (COLO 205 colon) was 39.1 µM and the TGI (DU-145 prostate) was 91.1 µM. For the same compound, the TGI (EKVX NSCLC) was > 100 µM, the TGI (HCC-2998 colon) was 31 µM and the TGI (HCT-116 colon) was 29.4 µM. For the same compound, the TGI (HCT-15 colon) was 34.5 µM, the TGI (HL-60(TB) leukemia) was 24.6 µM and the TGI (HOP-62 NSCLC) was 31.5 µM. For the same compound, the TGI (HOP-92 NSCLC) was 68.9 µM, the TGI (HS 578T breast) was 56.5 µM and the TGI (HT29 colon) was 90.2 µM. For the same compound, the TGI (IGROV1 ovarian) was 60 µM, the TGI (K-562 leukemia) was 30.2 µM and the TGI (KM12 colon) was > 100 µM. The TGI (LOX IMVI melanoma) was 37.3 µM, the TGI (M14 melanoma) was 31.3 µM and the TGI (MALME-3M melanoma) was 29.3 µM. For the same compound, the TGI (MCF7 breast) was 35.2 µM, the TGI (MDA-MB-231 breast) was 35.1 µM and the TGI (MDA-MB-435) was 32.7 µM. For the same compound, the TGI (MDA-N) was 31.1 µM, the TGI (MOLT-4 leukemia) was 35.5 µM and the TGI (NCI-H226 lung) was 55.2 µM. The TGI (NCI-H23 lung) was > 100 µM, the TGI (NCI-H460 lung) was 39.1 µM and the TGI (NCI/ADR-RES ovarian) was 33.3 µM. For the same compound, the TGI (OVCAR-3 ovarian) was > 100 µM, the TGI (OVCAR-4 ovarian) was > 100 µM and the TGI (OVCAR-5 ovarian) was 41.3 µM. The TGI (OVCAR-8 ovarian) was > 100 µM, the TGI (PC-3 prostate) was 59.5 µM and the TGI (RPMI-8226 leukemia) was 51.1 µM. For the same compound, the TGI (SF-268 CNS) was > 100 µM, the TGI (SF-295 CNS) was > 100 µM and the TGI (SF-539 CNS) was 32 µM. It also gave a TGI (SK-MEL-2 melanoma) of 29.6 µM, a TGI (SK-MEL-28 melanoma) of 40 µM and a TGI (SK-MEL-5 melanoma) of 26.3 µM. The TGI (SK-OV-3 ovarian) was 86.3 µM, the TGI (SN12C renal) was 35.5 µM and the TGI (SNB-75 CNS) was > 100 µM. It also gave a TGI (SR leukemia) of 35.5 µM, a TGI (SW-620 colon) of 36.8 µM and a TGI (T-47D breast) of 52.9 µM. The TGI (TK-10 renal) was 38.5 µM, the TGI (U251 CNS) was 49.3 µM and the TGI (UACC-257 melanoma) was 48.7 µM. The TGI (UACC-62 melanoma) was 32.4 µM and the TGI (UO-31 renal) was 36.8 µM.
With `COc1ccc2oc(=N)c(C(N)=O)cc2c1` the TGI (786-0 renal) was > 100 µM, the TGI (A498 renal) was > 100 µM and the TGI (A549 NSCLC) was > 100 µM. The TGI (ACHN renal) was > 100 µM, the TGI (BT-549 breast) was > 100 µM and the TGI (CAKI-1 renal) was > 100 µM. For the same compound, the TGI (CCRF-CEM leukemia) was > 100 µM, the TGI (COLO 205 colon) was > 100 µM and the TGI (DU-145 prostate) was > 100 µM. The TGI (HCC-2998 colon) was > 100 µM, the TGI (HCT-116 colon) was > 100 µM and the TGI (HCT-15 colon) was > 100 µM. The TGI (HL-60(TB) leukemia) was > 100 µM, the TGI (HOP-62 NSCLC) was > 100 µM and the TGI (HOP-92 NSCLC) was > 100 µM. For the same compound, the TGI (HS 578T breast) was 61.7 µM, the TGI (HT29 colon) was > 100 µM and the TGI (IGROV1 ovarian) was > 100 µM. The TGI (K-562 leukemia) was > 100 µM, the TGI (KM12 colon) was > 100 µM and the TGI (LOX IMVI melanoma) was > 100 µM. The TGI (M14 melanoma) was > 100 µM, the TGI (MDA-MB-231 breast) was > 100 µM and the TGI (MDA-MB-435) was > 100 µM. For the same compound, the TGI (MDA-N) was > 100 µM, the TGI (MOLT-4 leukemia) was > 100 µM and the TGI (NCI-H226 lung) was > 100 µM. The TGI (NCI-H23 lung) was > 100 µM, the TGI (NCI-H460 lung) was > 100 µM and the TGI (NCI/ADR-RES ovarian) was > 100 µM. For the same compound, the TGI (OVCAR-3 ovarian) was > 100 µM, the TGI (OVCAR-4 ovarian) was > 100 µM and the TGI (OVCAR-5 ovarian) was > 100 µM. The TGI (OVCAR-8 ovarian) was > 100 µM, the TGI (PC-3 prostate) was > 100 µM and the TGI (RPMI-8226 leukemia) was > 100 µM. The TGI (RXF 393 renal) was > 100 µM, the TGI (SF-268 CNS) was > 100 µM and the TGI (SF-539 CNS) was > 100 µM. For the same compound, the TGI (SK-MEL-2 melanoma) was 63 µM, the TGI (SK-MEL-28 melanoma) was > 100 µM and the TGI (SK-MEL-5 melanoma) was > 100 µM. For the same compound, the TGI (SK-OV-3 ovarian) was > 100 µM, the TGI (SN12C renal) was > 100 µM and the TGI (SNB-19 CNS) was > 100 µM. The TGI (SNB-75 CNS) was > 100 µM, the TGI (SR leukemia) was > 100 µM and the TGI (SW-620 colon) was > 100 µM. The TGI (T-47D breast) was > 100 µM, the TGI (U251 CNS) was > 100 µM and the TGI (UACC-257 melanoma) was > 100 µM. The TGI (UACC-62 melanoma) was > 100 µM.
`CC(C)(C)OC(=O)N1CC(O)O[C@H](c2ccccc2)[C@@H]1c1ccccc1` (stereo partly drawn) showed a TGI (786-0 renal) of 62.1 µM, a TGI (A498 renal) of 40.7 µM and a TGI (A549 NSCLC) of 39.5 µM. For the same compound, the TGI (BT-549 breast) was 36.4 µM, the TGI (CAKI-1 renal) was > 100 µM and the TGI (CCRF-CEM leukemia) was 48.4 µM. The TGI (COLO 205 colon) was 97.4 µM, the TGI (DU-145 prostate) was 53.8 µM and the TGI (EKVX NSCLC) was 40.9 µM. For the same compound, the TGI (HCT-116 colon) was > 100 µM, the TGI (HCT-15 colon) was 33.9 µM and the TGI (HOP-62 NSCLC) was 31.2 µM. The TGI (HOP-92 NSCLC) was 36.1 µM, the TGI (HS 578T breast) was > 100 µM and the TGI (HT29 colon) was 39.3 µM. For the same compound, the TGI (IGROV1 ovarian) was 40.4 µM, the TGI (K-562 leukemia) was > 100 µM and the TGI (KM12 colon) was 42 µM. For the same compound, the TGI (LOX IMVI melanoma) was > 100 µM, the TGI (M14 melanoma) was 30.2 µM and the TGI (MALME-3M melanoma) was 43.2 µM. For the same compound, the TGI (MDA-MB-231 breast) was 67.6 µM, the TGI (MDA-MB-435) was 32.2 µM and the TGI (MDA-N) was 59.5 µM. For the same compound, the TGI (MOLT-4 leukemia) was 97.5 µM, the TGI (NCI-H226 lung) was 45.7 µM and the TGI (NCI-H23 lung) was 29.5 µM. For the same compound, the TGI (NCI-H522 lung) was 45.6 µM, the TGI (NCI/ADR-RES ovarian) was > 100 µM and the TGI (OVCAR-3 ovarian) was 30.2 µM. The TGI (OVCAR-4 ovarian) was 36.2 µM, the TGI (OVCAR-5 ovarian) was 32.3 µM and the TGI (OVCAR-8 ovarian) was > 100 µM. The TGI (PC-3 prostate) was 27.8 µM, the TGI (RPMI-8226 leukemia) was > 100 µM and the TGI (RXF 393 renal) was 30 µM. For the same compound, the TGI (SF-268 CNS) was 77.6 µM, the TGI (SF-295 CNS) was 30.1 µM and the TGI (SK-MEL-2 melanoma) was 28.4 µM. The TGI (SK-MEL-28 melanoma) was 35.2 µM, the TGI (SK-MEL-5 melanoma) was > 100 µM and the TGI (SK-OV-3 ovarian) was 36.6 µM. The TGI (SN12C renal) was > 100 µM, the TGI (SNB-19 CNS) was 29.1 µM and the TGI (SNB-75 CNS) was 70.2 µM. For the same compound, the TGI (SR leukemia) was 62.8 µM, the TGI (SW-620 colon) was 32.8 µM and the TGI (T-47D breast) was > 100 µM. It also gave a TGI (TK-10 renal) of 33.1 µM, a TGI (U251 CNS) of 33.4 µM and a TGI (UACC-257 melanoma) of 35.3 µM. For the same compound, the TGI (UACC-62 melanoma) was 28.1 µM and the TGI (UO-31 renal) was 31.4 µM.

— PubChem BioAssay (NCI)
